Results as given in patent publication US9751824B2, “Acetyl salicyclic acid dimers, synthesis thereof, and uses thereof to prevent and treat complement-mediated disorders” (Aurin Biotech Inc., priority 2013, dated 2017).

Assays:
[1] = system: classical complement pathway; assay: CH50 assay, hemolysis of sensitized human red blood cells by zymosan-activated human serum; assay type: cell-based; settings: Erythrocyte, zymosan-activated human serum, read-out: IC50, protection of human red blood cells from complement attack
Experimental: (§1) To evaluate the strength of blockade of the classical complement pathway achieved by DAS-1 and DAS-2, a standard CH50 assay was employed. Normal human red blood cells were sensitized by incubation overnight with rabbit anti red blood cell antibody. Then dilutions of serum activated by zymosan, with and without various amounts of DAS-1, DAS-2, or the precursor acetylsalicylic acid, were incubated with the sensitized red blood cells for 1 hour at 37° C. The incubates were centrifuged at 5,000 rpm for 10 min. The hemoglobin released into the serum from red blood cells that had been destroyed by complement attack, was determined by reading the optical density (OD) at 405 nm. As a positive control, red blood cells were 100% lysed with water, and as a negative control, no serum was added to the incubate.
(§2) DAS-1 and DAS-2 protected human red blood cells from complement attack by zymogen activated serum of human, rat, cat, and dog. FIG. 3A illustrates the result for DAS-1.

[2] = target: T1, C5b-9 membrane attack complex (Homo sapiens, UniProt P02748); assay: Western blot of membrane attack complex assembly stage with C6, C7, C8, C9 antibodies (FIG. 4B); assay type: cell-based; settings: western blots probed with antibodies to C6, C7, C8 and C9
T1 construct: from tissue; host or cells: human serum, with human red blood cells as the target membrane
T1 sequence (P02748 22-559, one chain of several): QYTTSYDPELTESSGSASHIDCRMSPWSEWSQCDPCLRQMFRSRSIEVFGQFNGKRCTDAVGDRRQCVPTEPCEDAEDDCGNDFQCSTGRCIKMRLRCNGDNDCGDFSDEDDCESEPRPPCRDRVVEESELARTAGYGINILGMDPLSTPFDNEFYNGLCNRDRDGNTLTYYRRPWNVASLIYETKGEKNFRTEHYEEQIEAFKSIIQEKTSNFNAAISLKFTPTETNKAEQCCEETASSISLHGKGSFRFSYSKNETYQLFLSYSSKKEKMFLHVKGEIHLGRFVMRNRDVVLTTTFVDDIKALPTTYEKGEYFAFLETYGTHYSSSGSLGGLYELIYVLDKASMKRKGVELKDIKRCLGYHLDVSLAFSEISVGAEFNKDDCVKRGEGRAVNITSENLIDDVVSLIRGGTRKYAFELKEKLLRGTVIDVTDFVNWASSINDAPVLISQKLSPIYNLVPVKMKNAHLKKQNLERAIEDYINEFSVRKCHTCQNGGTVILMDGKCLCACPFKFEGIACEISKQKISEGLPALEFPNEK
Experimental: To determine at which stage of the complement cascade blockade was occurring, a variation of the CH50 assay was carried out. Instead of measuring hemolysis, western blot analyses of red blood cell membranes were carried out to determine which serum complement proteins were converted into activated complement products that became attached to susceptible membranes. Such attachment only occurs up to the stage of blockade. At stages beyond the blockade, they remain unchanged in the serum. Undiluted human serum was treated for 30 min with DAS-1, DAS-2, or acetyl salicylic acid. Then antibody-conjugated red blood cells in an equal volume were added. The mixtures were incubated at 37° C. for 1 h. They were then treated with a lysis buffer followed by a loading buffer for western blots. Equal amounts of protein from each sample were loaded onto gels and separated by 10% SDS-PAGE. Following SDS-PAGE, proteins were transferred to a PVDF membrane. The membranes were then treated with various primary antibodies followed by labeled secondary antibodies using well established techniques. Bands recognized by the antibodies were visualized by use of an enhanced chemiluminescence system and exposure to photographic film. […] The C6 antibody detected C5b6, C5b67, and C5b678. The C7 antibody detected C5b67 and C5b678, while the C8 antibody detected C5b678. […]

C4 = assay: Fluorometric binding to immobilized protein (FIG. 6); parameters: species or system human; settings: compound 100 microgm/mL; protein 32 ng/mL
Experimental: The next set of experiments directly tested the binding of DAS-1 and DAS-2 to properdin, Factor D and complement proteins. These proteins were immobilized on microwell plates in a concentration range of 1-32 ng/mL. DAS-1 and DAS-2 were then added at a concentration of 100 microgm/mL and the solutions incubated as previously described. DAS-1 and DAS-2 binding to the proteins was then assayed according to a previously published fluorometric method except that the excitation frequency was […] and the emission frequency […]. […] Such binding explains why DAS-1 and DAS-2 block the alternative pathway at the stage where Factor D cleaves PC3B to form PC3Bb, and both the classical and alternative pathways at the stage where C9 adds to C5b678. […] There was no binding of DAS-1 or DAS-2 to properdin and only background fluorescence was observed.

[3] = system: classical complement pathway; assay: CH50 assay, hemolysis of sensitized human red blood cells by zymosan-activated cat serum; assay type: cell-based; settings: Felis catus, Erythrocyte, read-out: IC50, protection of human red blood cells from complement attack
Experimental: as §1, §2

[4] = system: classical complement pathway; assay: CH50 assay, hemolysis of sensitized human red blood cells by zymosan-activated dog serum; assay type: cell-based; settings: Canis lupus familiaris, Erythrocyte, read-out: IC50, protection of human red blood cells from complement attack
Experimental: as §1, §2

[5] = target: T1, C5b-9 membrane attack complex; assay: Western blot of red blood cell membranes, classical pathway (FIG. 4A); assay type: cell-based; settings: zymosan-activated human serum, alternative pathway blocked by antibodies to properdin and Factor D
Experimental: To determine at which stage of the complement cascade blockade was occurring, a variation of the CH50 assay was carried out. Instead of measuring hemolysis, western blot analyses of red blood cell membranes were carried out to determine which serum complement proteins were converted into activated complement products that became attached to susceptible membranes. Such attachment only occurs up to the stage of blockade. At stages beyond the blockade, they remain unchanged in the serum. Undiluted human serum was treated for 30 min with DAS-1, DAS-2, or acetyl salicylic acid. Then antibody-conjugated red blood cells in an equal volume were added. The mixtures were incubated at 37° C. for 1 h. They were then treated with a lysis buffer followed by a loading buffer for western blots. Equal amounts of protein from each sample were loaded onto gels and separated by 10% SDS-PAGE. Following SDS-PAGE, proteins were transferred to a PVDF membrane. The membranes were then treated with various primary antibodies followed by labeled secondary antibodies using well established techniques. Bands recognized by the antibodies were visualized by use of an enhanced chemiluminescence system and exposure to photographic film. For probing the same membrane with different antibodies, the membranes were treated with stripping buffer and then treated as before with a different primary antibody. […] The adjacent lane illustrates the effect of adding to the serum zymosan to activate complement, and antibodies to properdin and Factor D to block the alternative pathway. Sensitized red blood cells then become hemolyzed by classical pathway attack. Native serum proteins are consumed and become incorporated into the red cell membranes. C1q was not metabolized, but the band was intensified due to its dissociation from the C1 complex. Native C3 was no longer detected because it had been cleaved, and the C3b fragment had become covalently attached to the membrane. Its degradation product C3d was detected. C4 was no longer detected because it had similarly been cleaved and the C4b fragment attached to the membrane and metabolized into its degradation product C4d. This fragment was also detected. C5 was cleaved and a band for the C5a product detected. Finally, the C5b-9 membrane attack complex, which had formed on the red cell membrane causing its hemolysis, was detected. The next two lanes show the effects of incubation in the presence of DAS-1, DAS-2. […] This establishes that the block provided by DAS-1 and DAS-2 was at the MAC assembly stage.

Row | Compound | IC50 ([1]; 1 hour at 37° C., OD 405 nm) [nM] | stage at which membrane attack complex formation is arrested [2] | binding to C4 (C4) | IC50 ([3]; 1 hour at 37° C., OD 405 nm) [nM] | IC50 ([4]; 1 hour at 37° C., OD 405 nm) [nM] | bands for the opsonization steps versus unprotected lane [5] | detection of membrane attack complex on red cell membranes [5] | hemolysis of red cells [5] | IC50 ([1]; unit inferred) [nM] | IC50 ([3]; unit inferred) [nM] | IC50 ([4]; unit inferred) [nM]
1 | CC(=O)Oc1ccc(-c2ccc(OC(C)=O)c(C(=O)O)c2)cc1C(=O)O [DAS-1, 4,4′-diacetoxy-[1,1′-biphenyl]-3,3′-dicarboxylic acid] | 208 | arrested at the C8 stage | did not bind | 168 | 142 | Identical bands | not detected | not hemolyzed | – | – | –
2 | CC(=O)Oc1ccc(Cc2ccc(OC(C)=O)c(C(=O)O)c2)cc1C(=O)O [DAS-2, 5,5′-methylenebis(2-acetoxybenzoic acid)] | – | same results as in lane 3 | did not bind | – | – | Identical bands | not detected | not hemolyzed | 113 | 128 | 98
